# Values of other authors in patent publication US20060269513A1, “Pheromone composition” (Kiotech Limited, priority 1997, published 2006).
# Tested on: humans
# Settings: human olfactory threshold
row,SMILES,Threshold concentration for humans (odour)
1,CCCCC(C)CCC(=O)O (stereo not shown) [4-Methyloctanoic acid],in the region of ppb
2,"NCCCCN [putrescine, 1,4-diaminobutane]",in the ppb range
3,CN(C)C [Trimethylamine],about 1 ppb
4,C[C@]12CC[C@@H](O)C[C@@H]1CC[C@@H]1[C@@H]2CC[C@]2(C)C=CC[C@@H]12 [5-alpha-androst-16-en-3-α-ol],in the low ppb range
